According to patent US11542262B2, “Phosphatidylinositol 3-kinase inhibitors” (NANJING ZHENGXIANG PHARMACEUTICALS CO., LTD., priority 2019, dated 2023):
Converted amounts (≈) assume the structure as drawn.

Experiments:
[1] = Kinetic solubility test in PBS pH7.4; assay type: physicochemical; conditions: aqueous buffer, kinetic from dmso stock; PBS pH 7.4, 25° C., 2 hours
Experimental: 15 μL of stock solution (10 mM) was placed in order into their proper 96-well rack. 485 μL of PBS pH7.4 was added into each vial of the cap-less Solubility Sample plate. The assay was performed in singlet. Add one stir stick to each vial and seal using a molded PTFE/Silicone plug. […] After completion of the 2 hours, the samples from the Solubility Sample plate were transferred into the filter plate. all the samples were filtered using the Vacuum Manifold. Aliquot of 5 μL was taken from the filtrate followed by addition of 495 μL of a mixture of H2O and acetonitrile containing internal standard (1:1). A certain proportion of ultrapure water was used to dilute the diluent according to the peak shape. The dilution factor was changed according to the solubility values and the LC-MS signal response.
Preparation of 3 μM standards (STD): From the 10 mM DMSO STD plate, 6 μL was transferred into the remaining empty plate, and then 194 μL of DMSO was added to that plate to have a STD concentration of 300 μM. From the 300 μM DMSO STD plate, 5 μL was transferred into the remaining empty plate, and then 495 μL of a mixture of H2O and acetonitrile containing internal standard (1:1) was added to that plate to have a final STD concentration of 3 μM. A certain proportion of ultrapure water was used to dilute the diluent according to the peak shape. The concentrations of the standard samples were changed according to the LC-MS signal response.
Procedure for sample analysis: The plate was placed into the well plate autosampler. The samples were evaluated by LC-MS/MS analysis.
Data analysis: All calculations were carried out using Microsoft Excel.
The filtrate was analyzed and quantified against a standard of known concentration using LC coupled with mass spectral peak identification and quantitation. Solubility values of the test compound and control compound were calculated as follows:
[formula] • Any value of the compounds that was not within the specified limits was rejected and the experiment was repeated.

PI3K gamma = target: T1, PI3K gamma (Mus musculus, UniProt Q9JHG7); test: Raw264.7 cell assay: phosphorylation of AKT in C5a stimulated RAW264.7 cells (AlphaLISA); assay type: cell-based; conditions: pAKT, read-out: PI3K gamma Raw264.7 cell (nM) cellular activity (IC50)
T1 construct: endogenous in cells; host or cells: RAW264.7
Experimental: (§1) This study aims to determine the inhibitory effect of compounds on PI3K gamma and PI3K delta in corresponding cell based assays. PI3K gamma activity was reflected by phosphorylation of AKT in C5a stimulated RAW264.7 cells, and PI3K delta activity was reflected by phosphorylation of AKT in anti-IgM stimulated Raji cells. Phosphorylation of AKT in cells was determined using AlphaLISA technology from PerkinElmer.
Raw264.7 cell assay: Prepare Passage 15 Raw264.7 cell and add 6 μL of 30K cells per well in 384-well plate by multidrop. Centrifuge at 500 RPM for 30 s and incubate for 2 hours at 37° C., 5% CO2. Add 30 nL compound by echo and incubate for 30 min at 37° C., 5% CO2. […] Add 2 μL of 5× lysis buffer by multidrop, incubate for 10 min on a plate shaker. Add 5 μL acceptor mix provided in the kit, centrifuge at 1000 RPM for 1 min. Add 5 μL donor mix provided in the kit, centrifuge at 1000 RPM for 1 min and incubate in dark for 2 hours at 25° C. Read AlphaLISA signal on Envision.
Y=Bottom+(Top−Bottom)/(1+10^((Log IC50−X)*Hill Slope)) X: Log of cpd concentration Y: Inhibition

PI3Kδ = PI3Kδ (Homo sapiens, UniProt O00329); test: ADP-Glo luminescent assay, enzymatic activity of PI3K delta; assay type: biochemical; conditions: ATP 25 μM; read-out: PI3K delta (nM) inhibitory activity (IC50)
PI3Kδ, sequence (O00329 whole entry, species assumed, canonical isoform): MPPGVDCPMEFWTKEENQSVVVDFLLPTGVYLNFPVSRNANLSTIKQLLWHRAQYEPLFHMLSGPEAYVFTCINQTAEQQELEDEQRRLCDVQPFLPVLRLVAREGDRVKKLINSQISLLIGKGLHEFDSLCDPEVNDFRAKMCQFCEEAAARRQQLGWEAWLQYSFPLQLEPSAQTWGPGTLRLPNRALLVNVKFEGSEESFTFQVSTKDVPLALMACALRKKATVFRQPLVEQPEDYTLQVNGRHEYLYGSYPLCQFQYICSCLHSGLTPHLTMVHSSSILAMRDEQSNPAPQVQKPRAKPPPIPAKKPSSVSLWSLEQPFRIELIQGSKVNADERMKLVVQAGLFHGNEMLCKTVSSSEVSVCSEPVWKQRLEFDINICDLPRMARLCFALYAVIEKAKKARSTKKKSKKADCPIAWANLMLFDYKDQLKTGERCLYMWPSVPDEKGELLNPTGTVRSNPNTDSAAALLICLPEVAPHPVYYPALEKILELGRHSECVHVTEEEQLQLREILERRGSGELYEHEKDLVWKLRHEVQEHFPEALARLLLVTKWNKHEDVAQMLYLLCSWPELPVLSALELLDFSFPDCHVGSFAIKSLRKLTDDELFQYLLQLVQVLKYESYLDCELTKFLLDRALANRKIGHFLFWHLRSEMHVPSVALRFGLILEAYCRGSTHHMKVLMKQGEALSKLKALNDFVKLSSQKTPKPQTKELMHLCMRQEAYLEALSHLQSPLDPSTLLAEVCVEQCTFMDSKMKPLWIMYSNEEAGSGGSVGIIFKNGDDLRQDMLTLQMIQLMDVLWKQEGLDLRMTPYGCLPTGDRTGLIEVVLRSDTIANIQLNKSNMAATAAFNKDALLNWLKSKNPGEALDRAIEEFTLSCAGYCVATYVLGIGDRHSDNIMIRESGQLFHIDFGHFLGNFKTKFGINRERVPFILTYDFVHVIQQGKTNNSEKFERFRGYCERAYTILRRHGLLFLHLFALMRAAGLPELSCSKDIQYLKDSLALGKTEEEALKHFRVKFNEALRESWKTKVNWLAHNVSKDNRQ
PI3Kδ, sequence (P27986 whole entry partner, species assumed, canonical isoform): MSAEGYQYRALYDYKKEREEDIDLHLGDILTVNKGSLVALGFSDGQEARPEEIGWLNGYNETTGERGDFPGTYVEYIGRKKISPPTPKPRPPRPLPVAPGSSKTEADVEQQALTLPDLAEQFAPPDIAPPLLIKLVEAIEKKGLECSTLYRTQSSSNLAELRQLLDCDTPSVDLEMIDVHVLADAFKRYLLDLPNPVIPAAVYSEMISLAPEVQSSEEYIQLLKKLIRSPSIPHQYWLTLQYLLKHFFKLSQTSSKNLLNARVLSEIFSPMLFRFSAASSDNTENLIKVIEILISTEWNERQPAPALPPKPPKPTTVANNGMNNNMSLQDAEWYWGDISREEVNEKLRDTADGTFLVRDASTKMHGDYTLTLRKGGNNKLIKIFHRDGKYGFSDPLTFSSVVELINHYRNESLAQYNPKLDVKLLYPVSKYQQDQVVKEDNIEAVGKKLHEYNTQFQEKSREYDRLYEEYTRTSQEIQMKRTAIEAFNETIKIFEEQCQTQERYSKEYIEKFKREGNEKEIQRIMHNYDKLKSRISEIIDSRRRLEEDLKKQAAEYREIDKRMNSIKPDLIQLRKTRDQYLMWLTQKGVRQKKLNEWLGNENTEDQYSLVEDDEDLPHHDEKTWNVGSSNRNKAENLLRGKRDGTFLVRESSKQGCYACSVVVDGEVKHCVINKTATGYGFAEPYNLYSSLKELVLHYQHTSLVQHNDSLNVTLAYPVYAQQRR
Experimental: Enzymatic activity of PI3K isoforms: Enzymatic activity of the class I PI3K isoforms in the presence of the compounds of Table 1 was measured using ADP-Glo luminescent assay against PI3Kα, PI3Kβ, PI3Kδ and PI3Kγ with ATP concentration at 25 μM. […] The compounds would be tested from 1 or 10 μM, 3-fold dilution for 10 doses, in duplicate.
(§2) Compound preparation: Dilute a compound to 100× of the final desired highest inhibitor concentration in reaction by 100% DMSO. Transfer 100 μl of this compound dilution to a well in a 96-well plate and serially dilute it with DMSO for a total of 10 concentrations.
(§3) Kinase reaction: Prepare a solution of PI3K in 1× kinase buffer at 2-fold the final concentration of each reagent in the assay. Control wells contain 1× kinase buffer without enzyme. Prepare substrate solution of PIP2 substrate and ATP in 1× kinase reaction buffer at 2-fold of the final concentration. Add concentration substrate solution to each well to the final concentration. Cover the assay plate, shake to mix, and incubate at room temperature for 1 hour. Add 5 μl of ADP-Glo reagent to each well to stop the reaction. Mix briefly with a quick spin, shake slowly on the shaker for 120 min. Add 10 ul Kinase Detection Reagent to each well, shake 1 min, equilibrate for 30 min before reading on a luminescence plate reader.
(§4) Data Analysis: Convert RLU values to percent inhibition values as Percent inhibition=(max−sample RLU)/(max−min)*100. “min”—no enzyme control; “max”—DMSO control. Fit the data in XLFit excel add-in version 5.4.0.8 to obtain IC50 values. Y=Bottom+(Top−Bottom)/(1+(IC50/X)^HillSlope).

PI3Kγ = PI3Kγ (Homo sapiens, UniProt P48736); test: ADP-Glo luminescent assay, enzymatic activity of PI3K gamma; assay type: biochemical; conditions: ATP 25 μM; read-out: PI3K gamma (nM) inhibitory activity (IC50)
PI3Kγ, sequence (P48736 whole entry, species assumed): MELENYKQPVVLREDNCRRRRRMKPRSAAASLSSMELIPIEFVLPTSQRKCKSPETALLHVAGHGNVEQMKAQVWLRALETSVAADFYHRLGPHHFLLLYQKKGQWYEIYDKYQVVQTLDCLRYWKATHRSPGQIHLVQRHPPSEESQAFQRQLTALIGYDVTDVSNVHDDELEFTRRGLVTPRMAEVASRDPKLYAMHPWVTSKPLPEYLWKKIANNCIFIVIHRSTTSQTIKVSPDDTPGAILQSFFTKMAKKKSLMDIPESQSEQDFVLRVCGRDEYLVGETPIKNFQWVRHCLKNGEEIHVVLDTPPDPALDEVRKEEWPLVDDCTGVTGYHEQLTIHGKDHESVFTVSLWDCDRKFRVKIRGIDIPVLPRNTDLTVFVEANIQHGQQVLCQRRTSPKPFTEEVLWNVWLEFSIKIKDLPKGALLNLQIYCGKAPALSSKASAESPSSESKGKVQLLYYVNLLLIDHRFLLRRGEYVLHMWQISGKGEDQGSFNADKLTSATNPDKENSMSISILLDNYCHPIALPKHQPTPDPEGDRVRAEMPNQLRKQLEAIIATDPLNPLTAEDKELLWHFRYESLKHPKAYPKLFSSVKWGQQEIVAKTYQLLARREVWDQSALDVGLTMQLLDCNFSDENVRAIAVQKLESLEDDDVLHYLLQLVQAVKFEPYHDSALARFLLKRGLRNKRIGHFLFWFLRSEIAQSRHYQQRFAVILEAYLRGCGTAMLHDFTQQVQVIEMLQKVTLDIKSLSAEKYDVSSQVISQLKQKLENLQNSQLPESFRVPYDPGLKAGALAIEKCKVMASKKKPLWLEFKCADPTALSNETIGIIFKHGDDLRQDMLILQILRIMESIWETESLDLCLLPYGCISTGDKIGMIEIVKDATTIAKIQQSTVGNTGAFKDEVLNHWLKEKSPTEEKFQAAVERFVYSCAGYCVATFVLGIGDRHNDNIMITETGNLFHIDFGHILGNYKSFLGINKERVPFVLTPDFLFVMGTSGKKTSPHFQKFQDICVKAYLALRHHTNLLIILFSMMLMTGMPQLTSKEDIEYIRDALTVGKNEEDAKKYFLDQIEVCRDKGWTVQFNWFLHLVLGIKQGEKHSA
Experimental: The compounds would be tested from 1 or 10 μM, 3-fold dilution for 10 doses, in duplicate.
as §2
as §3, with “Mix briefly with a quick spin, shake slowly on the shaker for 120 min.” left out
as §4

[2] = dogs, reported by Pemberton et al, J Med Chem 2018; cited from earlier work
PI3K delta = target: T2, PI3K delta (Homo sapiens, UniProt O00329); test: Raji cell assay: phosphorylation of AKT in anti-IgM stimulated Raji cells (AlphaLISA); assay type: cell-based; conditions: pAKT, read-out: PI3K delta Raji cell (nM) cellular activity (IC50)
T2 construct: endogenous in cells; host or cells: Raji
T2 sequence (O00329 whole entry): as the sequence (O00329 whole entry, species assumed, canonical isoform) above
T2 sequence (P27986 whole entry partner): as the sequence (P27986 whole entry partner, species assumed, canonical isoform) above
Experimental: as §1
Raji cell assay: Prepare Passage 11 Raji cell and add 6 μL of 60K cells per well in 384-well plate. Centrifuge at 500 RPM for 30 s and incubate for 2 hours at 37° C., 5% CO2. Add 30 nL compound by Echo and incubate for 30 min at 37° C. Add 2 μL of IgM (4×, 12 μg/mL) per well, centrifuge at 500 RPM for 30 s and incubate for 10 min at 37° C. Add 2 μL of 5× lysis buffer by Multidrop. Shake 10 min on a plate shaker. Add 5 μL acceptor mix provided in the kit. Centrifuge at 1000 RPM for 1 min. Add 5 μL donor mix provided in the kit. Centrifuge at 1000 RPM for 1 min. Then incubate for 2 hours at 25° C., keep the plate in dark. Read AlphaLISA signal on Envision.
Data analysis: Fit the cpd IC50 from non-linear regression equation. Y=Bottom+(Top−Bottom)/(1+10^((Log IC50−X)*Hill Slope)) X: Log of cpd concentration Y: Inhibition

PI3Kα = PI3Kα (Homo sapiens, UniProt P42336); test: ADP-Glo luminescent assay, enzymatic activity of PI3K alpha; assay type: biochemical; conditions: ATP 25 μM; read-out: PI3K alpha (nM) inhibitory activity (IC50)
PI3Kα, sequence (P42336 whole entry, species assumed, canonical isoform): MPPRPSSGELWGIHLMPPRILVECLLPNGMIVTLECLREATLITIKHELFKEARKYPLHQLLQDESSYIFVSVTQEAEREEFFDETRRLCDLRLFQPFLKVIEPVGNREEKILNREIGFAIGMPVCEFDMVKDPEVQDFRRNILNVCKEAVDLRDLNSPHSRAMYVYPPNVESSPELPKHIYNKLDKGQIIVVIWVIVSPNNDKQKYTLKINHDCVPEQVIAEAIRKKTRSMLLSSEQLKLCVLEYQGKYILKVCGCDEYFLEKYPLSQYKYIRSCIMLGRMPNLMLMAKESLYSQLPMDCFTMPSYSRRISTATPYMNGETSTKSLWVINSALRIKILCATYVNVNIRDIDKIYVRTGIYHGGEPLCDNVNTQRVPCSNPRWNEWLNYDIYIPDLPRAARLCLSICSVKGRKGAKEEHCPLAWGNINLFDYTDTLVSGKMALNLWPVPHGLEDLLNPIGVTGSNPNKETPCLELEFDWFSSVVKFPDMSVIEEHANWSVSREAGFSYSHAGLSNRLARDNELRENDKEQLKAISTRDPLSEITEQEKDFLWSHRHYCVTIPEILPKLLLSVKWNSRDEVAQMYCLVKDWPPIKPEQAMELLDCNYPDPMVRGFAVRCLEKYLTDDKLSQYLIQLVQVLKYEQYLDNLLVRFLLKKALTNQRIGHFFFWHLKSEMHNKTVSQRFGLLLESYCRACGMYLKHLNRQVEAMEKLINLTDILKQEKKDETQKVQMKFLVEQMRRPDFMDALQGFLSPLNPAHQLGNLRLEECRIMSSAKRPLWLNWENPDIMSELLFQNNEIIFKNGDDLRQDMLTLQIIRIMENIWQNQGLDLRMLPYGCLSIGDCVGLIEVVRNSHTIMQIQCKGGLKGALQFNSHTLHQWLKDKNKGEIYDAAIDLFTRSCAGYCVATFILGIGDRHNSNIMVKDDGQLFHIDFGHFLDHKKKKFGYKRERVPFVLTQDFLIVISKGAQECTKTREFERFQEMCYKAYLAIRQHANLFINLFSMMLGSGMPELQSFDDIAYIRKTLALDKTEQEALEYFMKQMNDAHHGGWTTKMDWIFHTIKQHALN
PI3Kα, sequence (P27986 whole entry partner, species assumed, canonical isoform): as the sequence (P27986 whole entry partner, species assumed, canonical isoform) above
Experimental: (§5) Enzymatic activity of PI3K isoforms: Enzymatic activity of the class I PI3K isoforms in the presence of the compounds of Table 1 was measured using ADP-Glo luminescent assay against PI3Kα, PI3Kβ, PI3Kδ and PI3Kγ with ATP concentration at 25 μM. IPI-549 was used as the reference compound. The compounds would be tested from 1 or 10 μM, 3-fold dilution for 10 doses, in duplicate.
as §2, §3, §4

PI3Kβ = PI3Kβ (Homo sapiens, UniProt P42338); test: ADP-Glo luminescent assay, enzymatic activity of PI3K beta; assay type: biochemical; conditions: ATP 25 μM; read-out: PI3K beta (nM) inhibitory activity (IC50)
Experimental: as §5, §2, §3, §4

Structure (SMILES) | solubility at 2 h [1] [µM] | IC50 (PI3K gamma) [nM] | IC50 (PI3Kδ) [nM] | IC50 (PI3Kγ) [nM] | Vssobs [2] [L/kg] | IC50 (PI3K delta) [nM] | IC50 (PI3Kα) [nM] | IC50 (PI3Kβ) [nM]
CC(=O)Nc1nc(C)c(-c2cc3c(c([S@@+](C)[O-])c2)C(=O)N([C@@H](C)C2CC2)C3)s1 (racemic) [Compound 12, N-(5-(2-((S)-1-cyclopropylethyl)-7-(methylsulfinyl)-1-oxoisoindolin-5-yl)-4-methylthiazol-2-yl)acetamide] | 211 (≈ 88.1 µg/mL) | 30 | 2080 | 1.7 | – | – | – | –
CC(=O)Nc1nc(C)c(-c2cc3c(c([S@](C)(=N)=O)c2)C(=O)N([C@@H](C)C2CC2)C3)s1 (racemic) [Compound 15, N-(5-(2-((S)-1-cyclopropylethyl)-7-(S-methylsulfonimidoyl)-1-oxoisoindolin-5-yl)-4-methylthiazol-2-yl)acetamide] | 245 (≈ 106 µg/mL) | 130 | 784 | 1.9 | – | – | – | –
CC(=O)Nc1nc(C)c(-c2cc3c(c(N4CCOCC4)n2)C(=O)N(C(C)C(F)(F)F)C3)s1 (stereo in doubt) [Compound 36, (R)-N-(4-methyl-5-(4-morpholino-3-oxo-2-(1,1,1-trifluoropropan-2-yl)-2,3-dihydro-1H-pyrrolo[3,4-c]pyridin-6-yl)thiazol-2-yl)acetamide] | 32 (≈ 15 µg/mL) | 3.3 | 1250 | 2.4 | – | – | – | –
CC(=O)Nc1nc(C)c(-c2cc3c(c(NS(C)(=O)=O)c2)C(=O)N([C@@H](C)C2CC2)C3)s1 [AZ-17] | – | – | – | – | 0.7 | – | – | –
CC(=O)Nc1nc(C)c(-c2cc3c(c(P(C)(C)=O)c2)C(=O)N([C@@H](C)C2CC2)C3)s1 [Compound 1, (S)-N-(5-(2-(1-cyclopropylethyl)-7-(dimethylphosphoryl)-1-oxoisoindolin-5-yl)-4-methylthiazol-2-yl)acetamide] | – | 315 | > 1000 | 1.4 | – | > 1000 | – | –
COc1nc(-c2sc(NC(C)=O)nc2C)cc2c1C(=O)N([C@@H](C)C1CC1)C2 [Compound 22, (S)-N-(5-(2-(1-cyclopropylethyl)-4-methoxy-3-oxo-2,3-dihydro-1H-pyrrolo[3,4-c]pyridin-6-yl)-4-methylthiazol-2-yl)acetamide] | 3.5 (≈ 1.35 µg/mL) | 2.5 | > 1000 | 1.7 | – | 2280 | – | –
CCS(=O)(=O)Nc1nc(-c2sc(NC(C)=O)nc2C)cc2c1C(=O)N([C@@H](C)C1CC1)C2 [Compound 23, (S)-N-(5-(2-(1-cyclopropylethyl)-4-(ethylsulfonamido)-3-oxo-2,3-dihydro-1H-pyrrolo[3,4-c]pyridin-6-yl)-4-methylthiazol-2-yl)acetamide] | 202 (≈ 93.6 µg/mL) | 2 | 1210 | 1 | – | 1510 | 3330 | > 10000
CC(=O)Nc1nc(C)c(-c2cc3c(c(NS(=O)(=O)C4CC4)n2)C(=O)N([C@@H](C)C2CC2)C3)s1 [Compound 24, (S)-N-(5-(4-(cyclopropanesulfonamido)-2-(1-cyclopropylethyl)-3-oxo-2,3-dihydro-1H-pyrrolo[3,4-c]pyridin-6-yl)-4-methylthiazol-2-yl)acetamide] | 83 (≈ 39.5 µg/mL) | 2.2 | 794 | 1.5 | – | 1420 | – | –
CC(=O)Nc1nc(C)c(-c2cc3c(c(N4CCOCC4)n2)C(=O)N([C@H](C)C2CC2)C3)s1 [Compound 35, (R)-N-(5-(2-(1-cyclopropylethyl)-4-morpholino-3-oxo-2,3-dihydro-1H-pyrrolo[3,4-c]pyridin-6-yl)-4-methylthiazol-2-yl)acetamide] | 23 (≈ 10.2 µg/mL) | 3.2 | 1330 | – | – | – | 4140 | > 10000
CC(=O)Nc1nc(C)c(-c2cc3c(c(N4CCS(=O)(=O)CC4)n2)C(=O)N([C@@H](C)C2CC2)C3)s1 [Compound 38, (S)-N-(5-(2-(1-cyclopropylethyl)-4-(1,1-dioxidothiomorpholino)-3-oxo-2,3-dihydro-M-pyrrolo[3,4-c]pyridin-6-yl)-4-methylthiazol-2-yl)acetamide] | 2.3 (≈ 1.13 µg/mL) | 9.3 | 1550 | 1.9 | – | – | 8420 | > 10000
CC(=O)Nc1nc(C)c(-c2cc3c(c(NC(C)=O)n2)C(=O)N([C@@H](C)C2CC2)C3)s1 [Compound 44, (S)-N-(5-(4-acetamido-2-(1-cyclopropylethyl)-3-oxo-2,3-dihydro-M-pyrrolo[3,4-c]pyridin-6-yl)-4-methylthiazol-2-yl)acetamide] | 1.2 (≈ 0.496 µg/mL) | 5.1 | > 1000 | 0.87 | – | – | – | –
